Test results taken from paper PMC12396409, “Screening and hit evaluation of a microbial metabolite library against the pathogenic Plasmodium falciparum and Toxoplasma gondii parasites” (International Journal for Parasitology: Drugs and Drug …, 2025).
Where two headings read alike, the source gives them in different places.

Columns and labels:
[1] = system: P. falciparum 3D7 parasites; test: P. falciparum growth inhibition assay, 2-cycle (120 h treatment), delayed-death screen and dose-response; type: cell-based, Plasmodium falciparum; conditions: for activity at 2 µg/mL: Plasmodium falciparum
[2] = system: P. falciparum 3D7 parasites; test: P. falciparum growth inhibition assay, 1-cycle (72 h treatment), SYBR DNA staining (library screen at 2 μg/mL and dose-response); type: cell-based, Plasmodium falciparum; conditions: for activity at 2 µg/mL: Plasmodium falciparum
[3] = system: T. gondii RH strain (RH-Tub-eYFP) tachyzoites; test: microbe, parasite or virus in culture; type: cell-based, Toxoplasma gondii; conditions: 72 h; for percent parasite growth at 2 µg/mL: Toxoplasma gondii
[4] = library screen at 2 μg/mL, 120 h, % growth, replicate 1
[5] = library screen at 2 μg/mL, 120 h, % growth, replicate 2
[6] = library screen at 2 μg/mL, 72 h, % growth, replicate 1
[7] = library screen at 2 μg/mL, 72 h, % growth, replicate 2
[8] = library screen at 2 μg/mL, % growth, replicate 1
[9] = library screen at 2 μg/mL, % growth, replicate 2
[10] = T. gondii, screen at 2 μg/mL, replicate 1, read-out: Tg_72h_%Growth_Rep1
[11] = T. gondii, screen at 2 μg/mL, replicate 2, read-out: Tg_72h_%Growth_Rep2
[12] = P. falciparum, 120 h, screen at 2 μg/mL, replicate 1
[13] = P. falciparum, 120 h, screen at 2 μg/mL, replicate 2
[14] = P. falciparum, 72 h, screen at 2 μg/mL, replicate 1
[15] = P. falciparum, 72 h, screen at 2 μg/mL, replicate 2
[16] = T. gondii, screen at 2 μg/mL, replicate 1
[17] = T. gondii, screen at 2 μg/mL, replicate 2

Compound: C[C@H]1NC(=O)[C@@H]2CCCCN2C(=O)CN(C)C(=O)CNC(=O)[C@@H]2CCCCN2C(=O)[C@H](NC(=O)c2nc3ccccc3cc2O)[C@@H](C)NC(=O)[C@@H]2CCCCN2C(=O)CN(C)C(=O)CNC(=O)[C@@H]2CCCCN2C(=O)[C@@H]1NC(=O)c1nc2ccccc2cc1O [Quinaldopeptin]
- Pf_120h_%Growth_Rep1 ([1]; P. falciparum, 120 h, parasite screen 2 μg/mL, % growth, replicate 1): 19.16%
- Pf_120h_%Growth_Rep2 ([1]; P. falciparum, 120 h, parasite screen 2 μg/mL, % growth, replicate 2): 8.74%
- Pf_72h_%Growth_Rep1 ([2]; P. falciparum, 72 h, parasite screen 2 μg/mL, % growth, replicate 1): 9.69%
- Pf_72h_%Growth_Rep2 ([2]; P. falciparum, 72 h, parasite screen 2 μg/mL, % growth, replicate 2): 1.67%
- Tg_72h_%Growth_Rep1 ([3]; T. gondii, parasite screen 2 μg/mL, % growth, replicate 1): 3.09%
- Tg_72h_%Growth_Rep2 ([3]; T. gondii, parasite screen 2 μg/mL, % growth, replicate 2): 0.65%

Compound: Enniatin A
- Pf_120h_%Growth_Rep1 [1, 4]: 12.21%
- Pf_120h_%Growth_Rep2 [1, 5]: 16.45%
- Pf_72h_%Growth_Rep1 [2, 6]: 2.40%
- Pf_72h_%Growth_Rep2 [2, 7]: -1.22%
- Tg_72h_%Growth_Rep1 [3, 8]: 2.24%
- Tg_72h_%Growth_Rep2 [3, 9]: 14.07%

Compound: C[C@H]1CCCC(=O)CCCCCc2cc(O)cc(O)c2C(=O)O1 [Zearalanone]
- activity at 2 µg/mL ([1]; 3D7, 120 h, P. falciparum, 120 h, screen at 2 μg/mL, replicate 1, read-out: Pf_120h_%Growth_Rep1): 102%
- activity at 2 µg/mL ([1]; 3D7, 120 h, P. falciparum, 120 h, screen at 2 μg/mL, replicate 2, read-out: Pf_120h_%Growth_Rep2): 77.7%
- activity at 2 µg/mL ([2]; 3D7, 72 h, P. falciparum, 72 h, screen at 2 μg/mL, replicate 1, read-out: Pf_72h_%Growth_Rep1): 31.9%
- activity at 2 µg/mL ([2]; 3D7, 72 h, P. falciparum, 72 h, screen at 2 μg/mL, replicate 2, read-out: Pf_72h_%Growth_Rep2): 78.2%
- percent parasite growth at 2 µg/mL [3, 10]: 97%
- percent parasite growth at 2 µg/mL [3, 11]: 107%

Compound: C=C(CC[C@]12O[C@H](C(=O)O)[C@@](O)(C(=O)O)[C@](C(=O)O)(O1)[C@H](OC(=O)/C=C/[C@@H](C)C[C@@H](C)CC)[C@H]2O)[C@@H](OC(C)=O)[C@H](C)Cc1ccccc1 [Zaragozic acid A]
- activity at 2 µg/mL ([1]; 3D7, P. falciparum, 120 h, screen at 2 μg/mL, replicate 1, read-out: Pf_120h_%Growth_Rep1): 104%
- activity at 2 µg/mL ([1]; 3D7, P. falciparum, 120 h, screen at 2 μg/mL, replicate 2, read-out: Pf_120h_%Growth_Rep2): 107%
- activity at 2 µg/mL ([2]; 3D7, P. falciparum, 72 h, screen at 2 μg/mL, replicate 1, read-out: Pf_72h_%Growth_Rep1): 92.7%
- activity at 2 µg/mL ([2]; 3D7, P. falciparum, 72 h, screen at 2 μg/mL, replicate 2, read-out: Pf_72h_%Growth_Rep2): 117%
- percent parasite growth at 2 µg/mL [3, 10]: 122%
- percent parasite growth at 2 µg/mL [3, 11]: 82.3%

Compound: C/C1=C\[C@H](C)C[C@H](C)[C@H](Cc2cnco2)OC(=O)/C(C)=C/CC[C@H](C)[C@H](Cc2cnco2)OC1=O [Conglobatin B]
- Pf_120h_%Growth_Rep1 [1, 12]: 80.47%
- Pf_120h_%Growth_Rep2 [1, 13]: 86.62%
- Pf_72h_%Growth_Rep1 [2, 14]: 81.21%
- Pf_72h_%Growth_Rep2 [2, 15]: 81.29%
- Tg_72h_%Growth_Rep1 [3, 16]: 184.82%
- Tg_72h_%Growth_Rep2 [3, 17]: 99.16%

Compound: CS(=O)(=O)c1ccc([C@@H](O)[C@H](N)CF)cc1 [Florfenicol amine]
- Pf_120h_%Growth_Rep1 [1, 4]: 94.89%
- Pf_120h_%Growth_Rep2 [1, 5]: 93.06%
- Pf_72h_%Growth_Rep1 [2, 6]: 83.39%
- Pf_72h_%Growth_Rep2 [2, 7]: 89.53%
- Tg_72h_%Growth_Rep1 [3, 8]: 102.85%
- Tg_72h_%Growth_Rep2 [3, 9]: 100.85%

Compound: COc1ccc(C[C@H]2NC[C@H](O)[C@H]2O)cc1 [Deacetylanisomycin]
- Pf_120h_%Growth_Rep1 [1, 12]: 36.01%
- Pf_120h_%Growth_Rep2 [1, 13]: 30.23%
- Pf_72h_%Growth_Rep1 [2, 14]: 64.17%
- Pf_72h_%Growth_Rep2 [2, 15]: 43.98%
- Tg_72h_%Growth_Rep1 [3, 16]: 5.55%
- Tg_72h_%Growth_Rep2 [3, 17]: 18.56%

Compound: CCCCCC(O)C1C(=O)OC(C)C(O)C=CC=CC=CC=CC=C(C)C(O)C(O)C(O)CC(O)CC(O)CC(O)CC(O)CC1O (stereo not drawn) [BIA-L1613]
- Pf_120h_%Growth_Rep1 ([1]; P. falciparum 3D7, 120 h, library screen at 2 μg/mL, % growth, replicate 1): 95.83%
- Pf_120h_%Growth_Rep2 ([1]; P. falciparum 3D7, 120 h, library screen at 2 μg/mL, % growth, replicate 2): 112.04%
- Pf_72h_%Growth_Rep1 ([2]; P. falciparum 3D7, 72 h, library screen at 2 μg/mL, % growth, replicate 1): 78.48%
- Pf_72h_%Growth_Rep2 ([2]; P. falciparum 3D7, 72 h, library screen at 2 μg/mL, % growth, replicate 2): 58.30%
- Tg_72h_%Growth_Rep1 ([3]; T. gondii RH, library screen at 2 μg/mL, % growth, replicate 1): 108.01%
- Tg_72h_%Growth_Rep2 ([3]; T. gondii RH, library screen at 2 μg/mL, % growth, replicate 2): 85.53%

Compound: C[C@H]1NC(=O)[C@@H]2CCCN2C1=O [Cyclo(D-Ala-L-Pro)]
- Pf_120h_%Growth_Rep1 [1, 12]: 102.13%
- Pf_120h_%Growth_Rep2 [1, 13]: 92.71%
- Pf_72h_%Growth_Rep1 [2, 14]: 84.19%
- Pf_72h_%Growth_Rep2 [2, 15]: 89.96%
- Tg_72h_%Growth_Rep1 [3, 16]: 121.18%
- Tg_72h_%Growth_Rep2 [3, 17]: 102.00%
